Measured values as given in ChEMBL document CHEMBL1201862, “PubChem BioAssay data set” (2004).
Blank lines part the entries; values can stand above or below the compound they belong to. Activity calls are given as the source filed them.

What was measured:
[1] = target: T1, Aminopeptidase N (Plasmodium falciparum FcB1/Columbia, UniProt O96935); experiment: malaria alanyl aminopeptidase activity blockers – biochemical, fluorogenic H-Leu-NHMec substrate, 1536-well (AID 1445); design: species or system Plasmodium falciparum 3D7, 3D7
T1 sequence (O96935 whole entry): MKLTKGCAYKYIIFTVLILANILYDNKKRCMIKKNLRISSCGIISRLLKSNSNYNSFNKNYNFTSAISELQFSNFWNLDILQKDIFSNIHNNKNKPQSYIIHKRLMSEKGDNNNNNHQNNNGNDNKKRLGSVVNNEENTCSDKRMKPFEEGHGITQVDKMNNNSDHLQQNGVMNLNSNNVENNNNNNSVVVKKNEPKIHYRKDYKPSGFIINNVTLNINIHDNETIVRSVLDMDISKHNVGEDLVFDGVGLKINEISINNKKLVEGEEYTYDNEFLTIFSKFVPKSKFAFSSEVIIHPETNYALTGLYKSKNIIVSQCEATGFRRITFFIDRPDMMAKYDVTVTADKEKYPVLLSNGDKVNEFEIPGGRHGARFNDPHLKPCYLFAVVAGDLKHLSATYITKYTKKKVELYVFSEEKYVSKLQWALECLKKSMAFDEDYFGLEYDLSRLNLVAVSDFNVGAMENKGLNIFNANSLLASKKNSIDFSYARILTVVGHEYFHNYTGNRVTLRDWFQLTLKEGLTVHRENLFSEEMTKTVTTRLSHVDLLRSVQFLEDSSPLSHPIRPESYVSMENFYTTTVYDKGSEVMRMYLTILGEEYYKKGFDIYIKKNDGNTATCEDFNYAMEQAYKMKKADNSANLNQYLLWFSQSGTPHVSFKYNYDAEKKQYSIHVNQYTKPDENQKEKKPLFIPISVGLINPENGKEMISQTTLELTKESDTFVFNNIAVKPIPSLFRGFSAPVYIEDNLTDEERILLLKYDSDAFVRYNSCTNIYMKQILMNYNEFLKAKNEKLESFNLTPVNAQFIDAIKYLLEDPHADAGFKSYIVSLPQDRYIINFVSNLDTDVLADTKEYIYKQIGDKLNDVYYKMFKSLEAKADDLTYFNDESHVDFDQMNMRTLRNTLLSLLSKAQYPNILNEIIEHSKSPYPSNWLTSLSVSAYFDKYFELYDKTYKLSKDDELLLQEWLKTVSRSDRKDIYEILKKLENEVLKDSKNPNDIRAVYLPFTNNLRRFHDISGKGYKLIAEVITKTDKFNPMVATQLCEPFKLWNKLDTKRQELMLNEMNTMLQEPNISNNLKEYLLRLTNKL

[2] = target: T2, Runt-related transcription factor 1/Core-binding factor subunit beta (Homo sapiens, UniProt Q01196+Q13951); experiment: disruptors of Runt domain/CBFb-SMMHC interaction – biochemical, FRET, Cerulean-Runt, Venus-CBFb-SMMHC, uHTS, […] (AID 1434); format: protein assay
[3] = target: T2, Runt-related transcription factor 1/Core-binding factor subunit beta; experiment: Runt domain/CBFb-SMMHC interaction disruptors – biochemical, TR-FRET (AID 1438); format: protein assay
[4] = target: Intestinal-type alkaline phosphatase (Homo sapiens, UniProt P09923); experiment: human intestinal alkaline phosphatase activators, dose response, biochemical, luminescence, uHTS hits (AID 463120); format: functional
[5] = target: T3, High affinity choline transporter 1 (Homo sapiens, UniProt Q9GZV3); experiment: human choline transporter blockers, potency – cell-based, 5-point CRC, membrane potential dye, dose response (AID 504840); format: functional
T3 sequence (Q9GZV3 whole entry): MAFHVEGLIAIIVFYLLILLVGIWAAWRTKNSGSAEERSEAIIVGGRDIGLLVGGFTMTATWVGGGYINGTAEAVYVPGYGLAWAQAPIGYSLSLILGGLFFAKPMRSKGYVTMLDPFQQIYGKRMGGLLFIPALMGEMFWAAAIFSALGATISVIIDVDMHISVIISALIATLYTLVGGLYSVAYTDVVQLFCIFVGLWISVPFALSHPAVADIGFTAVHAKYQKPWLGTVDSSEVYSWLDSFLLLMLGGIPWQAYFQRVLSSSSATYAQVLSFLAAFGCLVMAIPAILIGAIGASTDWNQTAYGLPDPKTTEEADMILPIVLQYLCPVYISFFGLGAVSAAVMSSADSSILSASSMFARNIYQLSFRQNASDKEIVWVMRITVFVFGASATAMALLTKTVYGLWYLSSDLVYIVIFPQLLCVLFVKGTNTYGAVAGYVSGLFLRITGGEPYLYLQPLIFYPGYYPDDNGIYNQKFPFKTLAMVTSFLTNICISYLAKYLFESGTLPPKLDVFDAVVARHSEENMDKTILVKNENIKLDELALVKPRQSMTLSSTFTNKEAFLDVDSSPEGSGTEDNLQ

[6] = target: Ion channel NompC (Danio rerio, UniProt Q7T1G6); experiment: Dose response cell-based high-throughput screening assay for agonists of the transient receptor potential channel N1 (TRPN1). [Related pubchem assays (depositor defined):AID1424, AID1448]; format: functional
[7] = target: T4, Mucolipin-3 (Homo sapiens, UniProt Q8TDD5); experiment: Fluorescence counterscreen assay for […] agonists: dose response cell-based high-throughput screening assay to identify agonists of the transient receptor potential channel ML3 (TRPML3). [Related pubchem assays: 1424, 1448 ]; format: functional
T4 sequence (Q8TDD5 whole entry): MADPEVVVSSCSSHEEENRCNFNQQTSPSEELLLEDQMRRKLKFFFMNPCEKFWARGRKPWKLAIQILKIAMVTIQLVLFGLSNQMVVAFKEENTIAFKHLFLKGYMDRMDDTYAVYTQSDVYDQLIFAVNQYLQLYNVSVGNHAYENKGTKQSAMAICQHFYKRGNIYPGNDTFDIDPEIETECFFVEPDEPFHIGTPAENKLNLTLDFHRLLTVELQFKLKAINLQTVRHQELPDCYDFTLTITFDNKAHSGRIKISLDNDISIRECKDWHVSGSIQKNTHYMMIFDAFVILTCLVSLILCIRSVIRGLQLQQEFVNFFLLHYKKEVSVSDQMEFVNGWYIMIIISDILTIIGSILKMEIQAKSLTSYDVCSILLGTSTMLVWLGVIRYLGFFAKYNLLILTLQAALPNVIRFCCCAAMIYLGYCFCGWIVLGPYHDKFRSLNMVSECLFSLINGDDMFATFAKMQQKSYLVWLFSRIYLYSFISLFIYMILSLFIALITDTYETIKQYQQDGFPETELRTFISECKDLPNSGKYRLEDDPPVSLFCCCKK

[8] = target: Protein phosphatase methylesterase 1 (Homo sapiens, UniProt Q9Y570); experiment: inhibition of PME-1 probe labeling – gel-based ABPP, IC50, set 1, late-stage follow-up (AID 463130); format: functional
[9] = target: T5, Fatty acid synthase (Homo sapiens, UniProt P49327); experiment: inhibition of human FAS-TE enzyme activity – biochemical, endpoint fluorescence intensity, uHTS hits, dose response (AID 624327); format: functional;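 further: fluorescence from hydrolysis of an O-methyl fluorescein acyl ester substrate by the enzyme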
[10] = target: T5, Fatty acid synthase; experiment: inhibition of human FAS-TE enzyme activity – biochemical, kinetic fluorescence intensity, dose response (AID 624326); format: functional;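 further: rate of fluorescence rise from hydrolysis of a fluorogenic O-methyl fluorescein ester substrate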

T2 sequence (Q01196 whole entry, the tested form may be a part): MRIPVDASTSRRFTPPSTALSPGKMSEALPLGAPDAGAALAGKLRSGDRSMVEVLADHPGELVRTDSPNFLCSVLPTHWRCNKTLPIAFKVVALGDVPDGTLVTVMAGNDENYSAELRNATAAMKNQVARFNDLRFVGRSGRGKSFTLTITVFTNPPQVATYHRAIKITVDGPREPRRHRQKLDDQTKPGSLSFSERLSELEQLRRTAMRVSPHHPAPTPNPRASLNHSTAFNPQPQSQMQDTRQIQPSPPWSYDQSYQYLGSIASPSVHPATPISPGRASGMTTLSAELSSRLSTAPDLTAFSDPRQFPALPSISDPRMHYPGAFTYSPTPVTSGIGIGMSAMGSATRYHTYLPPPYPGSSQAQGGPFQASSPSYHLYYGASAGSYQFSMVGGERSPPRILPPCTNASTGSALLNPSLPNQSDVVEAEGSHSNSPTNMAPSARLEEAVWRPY
T2 sequence (Q13951 whole entry, the tested form may be a part): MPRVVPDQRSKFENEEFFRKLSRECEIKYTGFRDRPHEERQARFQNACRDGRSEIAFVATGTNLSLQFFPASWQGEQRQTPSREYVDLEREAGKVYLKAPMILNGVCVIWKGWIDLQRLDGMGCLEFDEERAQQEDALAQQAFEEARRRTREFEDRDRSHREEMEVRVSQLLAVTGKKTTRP
T5 sequence (P49327 whole entry): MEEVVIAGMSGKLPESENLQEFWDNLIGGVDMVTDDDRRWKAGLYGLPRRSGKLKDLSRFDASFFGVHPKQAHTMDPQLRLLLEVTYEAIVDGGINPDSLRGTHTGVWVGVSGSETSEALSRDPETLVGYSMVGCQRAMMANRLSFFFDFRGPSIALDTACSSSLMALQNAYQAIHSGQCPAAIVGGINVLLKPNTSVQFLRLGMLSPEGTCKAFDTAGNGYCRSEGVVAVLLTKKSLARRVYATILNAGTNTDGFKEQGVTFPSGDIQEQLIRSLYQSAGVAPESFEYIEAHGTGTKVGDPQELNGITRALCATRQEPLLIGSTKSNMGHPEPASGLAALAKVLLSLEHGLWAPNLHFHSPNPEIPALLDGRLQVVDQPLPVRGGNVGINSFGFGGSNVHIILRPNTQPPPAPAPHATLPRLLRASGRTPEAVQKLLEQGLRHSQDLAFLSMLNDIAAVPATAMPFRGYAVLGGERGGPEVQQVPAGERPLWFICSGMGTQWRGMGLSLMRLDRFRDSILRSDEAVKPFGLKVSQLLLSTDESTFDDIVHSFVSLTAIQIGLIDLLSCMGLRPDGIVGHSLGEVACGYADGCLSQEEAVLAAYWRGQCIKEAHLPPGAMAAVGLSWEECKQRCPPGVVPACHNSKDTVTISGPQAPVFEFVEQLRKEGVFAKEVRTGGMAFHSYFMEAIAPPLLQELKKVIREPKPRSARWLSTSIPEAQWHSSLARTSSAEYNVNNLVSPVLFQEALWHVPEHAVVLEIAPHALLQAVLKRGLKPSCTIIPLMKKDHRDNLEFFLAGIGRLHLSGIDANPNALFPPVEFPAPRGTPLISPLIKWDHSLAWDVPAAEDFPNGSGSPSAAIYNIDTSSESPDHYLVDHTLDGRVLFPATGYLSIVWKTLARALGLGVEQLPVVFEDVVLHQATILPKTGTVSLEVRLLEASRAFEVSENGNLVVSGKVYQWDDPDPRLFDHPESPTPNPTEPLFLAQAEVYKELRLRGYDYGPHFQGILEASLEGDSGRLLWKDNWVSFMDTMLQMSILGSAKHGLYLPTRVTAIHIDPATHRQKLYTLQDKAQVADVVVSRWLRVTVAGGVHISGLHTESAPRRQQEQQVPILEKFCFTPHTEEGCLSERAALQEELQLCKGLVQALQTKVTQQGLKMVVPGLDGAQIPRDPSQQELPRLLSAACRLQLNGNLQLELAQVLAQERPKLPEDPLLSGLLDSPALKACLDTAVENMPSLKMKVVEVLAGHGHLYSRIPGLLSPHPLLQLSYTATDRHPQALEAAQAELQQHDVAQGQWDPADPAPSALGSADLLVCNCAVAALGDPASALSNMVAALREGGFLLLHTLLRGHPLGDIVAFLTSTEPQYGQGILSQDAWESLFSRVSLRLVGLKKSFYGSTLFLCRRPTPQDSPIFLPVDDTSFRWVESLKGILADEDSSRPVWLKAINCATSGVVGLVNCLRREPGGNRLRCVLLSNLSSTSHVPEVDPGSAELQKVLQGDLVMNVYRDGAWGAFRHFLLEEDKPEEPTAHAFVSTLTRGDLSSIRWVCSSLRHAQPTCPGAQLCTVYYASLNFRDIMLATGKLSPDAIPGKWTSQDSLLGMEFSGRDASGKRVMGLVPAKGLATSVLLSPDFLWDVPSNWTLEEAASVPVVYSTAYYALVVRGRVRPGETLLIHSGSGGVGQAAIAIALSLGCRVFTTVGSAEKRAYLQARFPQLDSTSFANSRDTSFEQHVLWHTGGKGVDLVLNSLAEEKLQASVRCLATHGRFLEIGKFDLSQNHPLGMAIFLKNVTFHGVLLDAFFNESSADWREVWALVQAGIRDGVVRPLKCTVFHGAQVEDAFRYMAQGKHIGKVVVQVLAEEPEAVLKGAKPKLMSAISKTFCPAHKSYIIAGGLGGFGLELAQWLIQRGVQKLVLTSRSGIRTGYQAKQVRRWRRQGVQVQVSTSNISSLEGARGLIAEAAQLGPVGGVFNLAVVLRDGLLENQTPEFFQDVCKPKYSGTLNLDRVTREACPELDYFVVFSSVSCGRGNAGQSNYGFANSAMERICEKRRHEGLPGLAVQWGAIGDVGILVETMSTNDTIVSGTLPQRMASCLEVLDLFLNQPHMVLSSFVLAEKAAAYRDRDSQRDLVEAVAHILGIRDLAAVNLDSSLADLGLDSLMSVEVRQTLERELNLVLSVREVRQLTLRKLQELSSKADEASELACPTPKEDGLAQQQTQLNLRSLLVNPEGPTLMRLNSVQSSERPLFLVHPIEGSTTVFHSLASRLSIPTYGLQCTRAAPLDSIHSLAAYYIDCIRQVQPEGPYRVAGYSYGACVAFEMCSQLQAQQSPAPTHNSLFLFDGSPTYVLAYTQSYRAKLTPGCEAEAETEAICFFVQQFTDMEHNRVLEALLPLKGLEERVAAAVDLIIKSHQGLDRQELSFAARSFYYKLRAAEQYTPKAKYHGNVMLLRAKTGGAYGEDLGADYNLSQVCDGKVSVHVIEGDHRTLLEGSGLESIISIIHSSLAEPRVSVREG
Sequence of Intestinal-type alkaline phosphatase (P09923 whole entry): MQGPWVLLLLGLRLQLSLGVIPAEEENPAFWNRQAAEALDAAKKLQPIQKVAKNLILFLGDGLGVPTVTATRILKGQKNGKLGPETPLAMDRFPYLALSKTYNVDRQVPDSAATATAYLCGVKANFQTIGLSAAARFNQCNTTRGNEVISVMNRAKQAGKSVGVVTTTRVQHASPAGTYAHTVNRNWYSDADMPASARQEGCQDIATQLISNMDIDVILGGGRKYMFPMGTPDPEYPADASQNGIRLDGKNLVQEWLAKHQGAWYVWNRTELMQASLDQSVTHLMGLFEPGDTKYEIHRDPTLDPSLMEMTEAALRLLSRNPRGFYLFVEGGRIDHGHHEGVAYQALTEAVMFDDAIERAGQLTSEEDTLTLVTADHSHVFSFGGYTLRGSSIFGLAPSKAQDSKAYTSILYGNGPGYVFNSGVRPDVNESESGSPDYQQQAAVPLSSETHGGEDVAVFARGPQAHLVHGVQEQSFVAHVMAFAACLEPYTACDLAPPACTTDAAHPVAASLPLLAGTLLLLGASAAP
Sequence of Protein phosphatase methylesterase 1 (Q9Y570 whole entry): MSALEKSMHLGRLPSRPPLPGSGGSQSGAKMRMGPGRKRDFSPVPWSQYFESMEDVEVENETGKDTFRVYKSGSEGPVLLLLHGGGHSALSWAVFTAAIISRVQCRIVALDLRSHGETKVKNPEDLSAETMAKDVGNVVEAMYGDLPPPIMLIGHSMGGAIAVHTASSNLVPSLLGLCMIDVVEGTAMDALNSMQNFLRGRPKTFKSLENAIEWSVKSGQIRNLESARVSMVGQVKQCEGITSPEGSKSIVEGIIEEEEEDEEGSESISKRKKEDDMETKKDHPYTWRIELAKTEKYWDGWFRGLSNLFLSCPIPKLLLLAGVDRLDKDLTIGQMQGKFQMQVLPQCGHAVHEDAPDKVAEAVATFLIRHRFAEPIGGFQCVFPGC

SMILES: CC1=CC(c2ccc(Cl)cc2)N2NC(NS(=O)(=O)c3ccc(C)cc3)=NC2=N1 (stereo not given)
IC50 [1]: 104 µM (active)
IC50 [2]: 23.6 µM (active)
IC50 [3]: 31.5 µM (active)

EC50 [4]: > 100 µM (inactive)
IC50 [5]: 15.1 µM (active)
SMILES: OC1CN=C2Sc3ccccc3N2C1 (stereo not given)

EC50 [6]: 1.28 µM (active)
EC50 [7]: 2.43 µM (active)
SMILES: CCN1C(=O)/C(=C/c2ccc(N3CCCC3)cc2)NC1=S

IC50 [8]: 69 nM (active)
IC50 [9]: 3.86 µM (active)
IC50 [10]: 2.06 µM (active)
SMILES: COC(=O)N1C(=O)[C@](c2ccc(OC)cc2)(C(C)C)N1C(=O)OC
